Measurements: paper PMC6194023 (Cell Death & Disease, 2018)

Legend:
MDA-MB-231 [1] = assay: mitotic catastrophe, nuclear staining; assay type: cell-based, human; conditions: MDA-MB-231, 0.5 μM, 30 h
Description: (§1) Then treated tumor cells were washed with PBS and stain with Hoechst 33342 in the dark for 15 min. Image were taken by fluorescence microscopy for morphological changes after YLT-11 treatment.

MDA-MB-468 [2] = assay: mitotic catastrophe, nuclear staining; assay type: cell-based, human; conditions: MDA-MB-468, 0.5 μM, 30 h
Description: as §1

TTBK1 = TTBK1 (Homo sapiens, UniProt Q5TCY1); assay: kinase activity in vitro; assay type: biochemical
PLK2 [3] = target: T1, PLK2 (Homo sapiens, UniProt Q9NYY3); assay: kinase activity in vitro; assay type: biochemical
T1 construct: made in house; host or cells: T7 phage in E. coli (BL21-derived) or HEK-293 cells
T1 sequence (Q9NYY3 whole entry): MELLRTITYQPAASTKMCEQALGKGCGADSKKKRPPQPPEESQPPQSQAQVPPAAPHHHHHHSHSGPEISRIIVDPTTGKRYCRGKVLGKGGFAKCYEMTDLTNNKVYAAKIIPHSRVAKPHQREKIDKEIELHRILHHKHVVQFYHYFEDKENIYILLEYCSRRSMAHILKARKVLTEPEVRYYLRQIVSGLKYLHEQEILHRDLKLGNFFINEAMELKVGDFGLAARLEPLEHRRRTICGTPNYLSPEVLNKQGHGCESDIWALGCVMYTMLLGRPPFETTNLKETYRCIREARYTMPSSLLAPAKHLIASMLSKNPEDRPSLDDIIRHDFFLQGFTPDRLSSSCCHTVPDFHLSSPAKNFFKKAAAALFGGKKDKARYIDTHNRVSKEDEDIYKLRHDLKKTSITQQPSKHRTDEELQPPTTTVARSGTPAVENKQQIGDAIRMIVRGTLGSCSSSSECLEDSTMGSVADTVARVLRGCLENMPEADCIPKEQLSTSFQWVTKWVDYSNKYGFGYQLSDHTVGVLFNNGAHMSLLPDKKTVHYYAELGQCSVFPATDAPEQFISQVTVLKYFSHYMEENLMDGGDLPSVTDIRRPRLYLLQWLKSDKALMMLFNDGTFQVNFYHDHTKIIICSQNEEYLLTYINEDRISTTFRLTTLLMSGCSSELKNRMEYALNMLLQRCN

PLK1 [4] = target: T2, PLK1 (Homo sapiens, UniProt P53350); assay: competition binding constant assay
T2 sequence (P53350 whole entry): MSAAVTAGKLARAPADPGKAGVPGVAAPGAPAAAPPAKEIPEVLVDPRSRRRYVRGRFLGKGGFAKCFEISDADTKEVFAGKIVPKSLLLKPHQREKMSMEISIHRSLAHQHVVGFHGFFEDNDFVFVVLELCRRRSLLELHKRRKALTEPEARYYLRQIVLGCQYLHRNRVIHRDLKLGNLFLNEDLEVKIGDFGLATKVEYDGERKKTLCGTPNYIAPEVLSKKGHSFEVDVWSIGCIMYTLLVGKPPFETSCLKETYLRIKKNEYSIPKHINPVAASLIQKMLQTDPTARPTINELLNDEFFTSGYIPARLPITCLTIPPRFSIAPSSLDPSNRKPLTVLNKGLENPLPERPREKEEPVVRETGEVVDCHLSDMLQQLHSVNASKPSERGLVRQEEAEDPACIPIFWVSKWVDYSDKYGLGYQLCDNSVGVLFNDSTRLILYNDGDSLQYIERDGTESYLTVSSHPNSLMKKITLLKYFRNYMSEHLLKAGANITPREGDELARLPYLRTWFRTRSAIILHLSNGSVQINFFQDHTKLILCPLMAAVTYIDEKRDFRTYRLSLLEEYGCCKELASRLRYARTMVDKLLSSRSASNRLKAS
Description: (§3) Kinases were produced in HEK-293 cells and subsequently tagged with DNA for quantitative polymerase chain reaction (qPCR) detection. […] The beads were blocked with excess biotin and washed with blocking buffer (SeaBlock, 1% bovine serum albumin, 0.05% Tween-20, 1 mM dithiothreitol (DTT)). […] The kinase concentration in the eluates was measured by qPCR.

TTBK2 = TTBK2 (Homo sapiens, UniProt Q6IQ55); assay: kinase activity in vitro; assay type: biochemical
EGFR = EGFR (Homo sapiens, UniProt P00533); assay: kinase activity in vitro; assay type: biochemical
Chain of EGFR (P00533 25-1210): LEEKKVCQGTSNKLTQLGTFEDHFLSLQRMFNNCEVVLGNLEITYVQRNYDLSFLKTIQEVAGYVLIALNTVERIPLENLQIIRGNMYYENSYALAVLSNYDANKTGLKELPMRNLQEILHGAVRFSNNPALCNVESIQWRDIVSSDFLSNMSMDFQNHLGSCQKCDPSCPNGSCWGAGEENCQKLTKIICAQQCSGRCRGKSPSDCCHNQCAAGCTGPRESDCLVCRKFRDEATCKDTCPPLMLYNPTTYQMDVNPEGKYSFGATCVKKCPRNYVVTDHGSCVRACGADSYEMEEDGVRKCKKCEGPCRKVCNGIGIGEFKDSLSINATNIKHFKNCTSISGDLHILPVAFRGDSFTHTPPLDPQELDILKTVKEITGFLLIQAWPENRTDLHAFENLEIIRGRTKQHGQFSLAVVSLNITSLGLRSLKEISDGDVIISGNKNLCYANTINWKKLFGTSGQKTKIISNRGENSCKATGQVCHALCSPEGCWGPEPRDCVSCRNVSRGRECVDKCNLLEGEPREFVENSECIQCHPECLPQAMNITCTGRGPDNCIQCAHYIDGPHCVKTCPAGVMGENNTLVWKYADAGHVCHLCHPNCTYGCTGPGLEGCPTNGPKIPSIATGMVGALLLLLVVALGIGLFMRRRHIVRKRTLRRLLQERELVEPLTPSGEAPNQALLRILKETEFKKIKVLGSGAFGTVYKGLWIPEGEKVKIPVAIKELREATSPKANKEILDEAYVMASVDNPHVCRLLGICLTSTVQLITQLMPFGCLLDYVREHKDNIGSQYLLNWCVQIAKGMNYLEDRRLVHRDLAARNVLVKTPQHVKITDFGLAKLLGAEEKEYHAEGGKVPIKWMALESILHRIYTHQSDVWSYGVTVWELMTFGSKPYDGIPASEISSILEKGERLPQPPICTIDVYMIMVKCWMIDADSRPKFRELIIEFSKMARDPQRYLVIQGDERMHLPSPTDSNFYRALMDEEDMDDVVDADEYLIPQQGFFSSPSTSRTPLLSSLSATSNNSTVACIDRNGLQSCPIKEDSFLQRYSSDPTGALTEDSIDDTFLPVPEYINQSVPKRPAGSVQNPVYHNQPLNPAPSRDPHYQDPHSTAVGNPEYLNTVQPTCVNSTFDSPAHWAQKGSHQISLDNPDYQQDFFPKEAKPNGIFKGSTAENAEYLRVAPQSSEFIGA

[5] = test system: MDA-MB-231 tumor xenograft; conditions: MDA-MB-231 xenograft, 90 mg/kg p.o. every day
PLK3 [6] = target: T3, PLK3 (Homo sapiens, UniProt Q9H4B4); assay: competition binding constant assay
T3 sequence (Q9H4B4 whole entry): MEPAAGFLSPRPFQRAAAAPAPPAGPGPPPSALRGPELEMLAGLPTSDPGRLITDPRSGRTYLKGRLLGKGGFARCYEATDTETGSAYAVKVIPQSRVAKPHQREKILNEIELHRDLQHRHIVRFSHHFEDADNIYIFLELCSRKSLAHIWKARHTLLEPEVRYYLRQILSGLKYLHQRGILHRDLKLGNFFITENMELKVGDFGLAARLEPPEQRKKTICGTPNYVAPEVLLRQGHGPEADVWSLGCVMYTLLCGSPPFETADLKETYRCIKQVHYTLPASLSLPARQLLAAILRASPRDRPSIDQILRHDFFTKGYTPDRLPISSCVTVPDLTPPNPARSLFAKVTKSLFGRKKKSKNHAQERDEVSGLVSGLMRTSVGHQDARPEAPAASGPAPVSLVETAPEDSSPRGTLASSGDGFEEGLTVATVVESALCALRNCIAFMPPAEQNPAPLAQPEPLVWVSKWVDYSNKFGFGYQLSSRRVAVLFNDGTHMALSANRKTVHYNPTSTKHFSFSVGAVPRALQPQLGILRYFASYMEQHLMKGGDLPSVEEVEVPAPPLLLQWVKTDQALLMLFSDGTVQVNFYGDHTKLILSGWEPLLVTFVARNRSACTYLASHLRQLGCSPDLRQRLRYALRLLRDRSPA
Description: as §3

PLK3 [7] = target: T3, PLK3; assay: kinase activity in vitro; assay type: biochemical
[8] = test system: MDA-MB-468 tumor xenograft; conditions: MDA-MB-468 xenograft, 90 mg/kg p.o. every day
MDA-MB-231 xenografts = assay: immunohistochemical analysis of tumor tissues; conditions: MDA-MB-231 tumor tissue
Source text: Tumor tissues obtained from the animal models were immersed in 4% paraformaldehyde. After washing with running tap water overnight, the tissues dehydrated trough a serial alcohol gradient and embedded in paraffin, Paraffin-embedded tumor sections were stained with primary antibodies (Ki67, cleaved caspase-3, p21, CDC25C, CyclinB1) using the DAB Detection Kit. The images were captured with a Carl Zeiss digital camera attached to a light microscope.

TOPK = TOPK (Homo sapiens, UniProt Q96KB5); assay: kinase activity in vitro; assay type: biochemical
Chain of TOPK (Q96KB5 whole entry): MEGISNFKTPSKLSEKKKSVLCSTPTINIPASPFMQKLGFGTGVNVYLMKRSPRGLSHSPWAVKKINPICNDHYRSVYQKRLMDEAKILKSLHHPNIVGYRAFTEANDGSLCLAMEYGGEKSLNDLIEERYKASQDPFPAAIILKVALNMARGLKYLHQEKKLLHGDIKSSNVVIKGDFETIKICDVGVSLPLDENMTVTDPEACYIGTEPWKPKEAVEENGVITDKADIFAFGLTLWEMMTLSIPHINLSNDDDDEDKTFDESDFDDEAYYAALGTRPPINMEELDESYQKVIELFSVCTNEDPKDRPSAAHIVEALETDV

PLK2 [9] = target: T1, PLK2; assay: competition binding constant assay
Description: as §3

MCF-7 tumor xenograft = conditions: MCF-7 xenograft, 90 mg/kg p.o. every day
JNK2 = JNK2 (Homo sapiens, UniProt P45984); assay: kinase activity in vitro; assay type: biochemical
Chain of JNK2 (P45984 whole entry): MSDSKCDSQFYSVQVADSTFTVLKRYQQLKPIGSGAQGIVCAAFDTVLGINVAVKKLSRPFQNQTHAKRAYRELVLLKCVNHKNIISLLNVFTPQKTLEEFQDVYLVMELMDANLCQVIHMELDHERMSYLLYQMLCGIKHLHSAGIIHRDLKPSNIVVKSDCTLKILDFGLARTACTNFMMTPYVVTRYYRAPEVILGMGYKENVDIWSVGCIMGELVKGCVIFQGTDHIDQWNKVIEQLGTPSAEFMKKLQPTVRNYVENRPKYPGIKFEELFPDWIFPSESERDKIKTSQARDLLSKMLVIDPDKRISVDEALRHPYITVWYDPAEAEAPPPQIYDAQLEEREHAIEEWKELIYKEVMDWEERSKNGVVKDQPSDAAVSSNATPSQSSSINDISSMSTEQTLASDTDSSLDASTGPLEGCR

[10] = test system: MDA-MB-468 and MDA-MB-231; assay: centriole number by immunofluorescence (centrin 2, γ-tublin); assay type: cell-based, human; conditions: 24 h
Description: Tumor cells were seeded in Millicell EZ SLIDE 8 well glass slide (Millipore, Ireland) at the density of 2 × 10^4 per well. […] Then cells were incubated with primary antibody overnight at 4 ℃ after blocked with 1% BSA. Goat anti-rabbit and goat anti-mouse secondary antibodies conjugated to FITC and […] were used to detect primary antibodies. Cell nucleuses were stained with DAPI. Images were taken using a Leica cofocusing microscope.

FGFR1 = FGFR1 (Homo sapiens, UniProt P11362); assay: kinase activity in vitro; assay type: biochemical
NEK2 = NEK2 (Homo sapiens, UniProt P51955); assay: kinase activity in vitro; assay type: biochemical
Chain of NEK2 (P51955 whole entry): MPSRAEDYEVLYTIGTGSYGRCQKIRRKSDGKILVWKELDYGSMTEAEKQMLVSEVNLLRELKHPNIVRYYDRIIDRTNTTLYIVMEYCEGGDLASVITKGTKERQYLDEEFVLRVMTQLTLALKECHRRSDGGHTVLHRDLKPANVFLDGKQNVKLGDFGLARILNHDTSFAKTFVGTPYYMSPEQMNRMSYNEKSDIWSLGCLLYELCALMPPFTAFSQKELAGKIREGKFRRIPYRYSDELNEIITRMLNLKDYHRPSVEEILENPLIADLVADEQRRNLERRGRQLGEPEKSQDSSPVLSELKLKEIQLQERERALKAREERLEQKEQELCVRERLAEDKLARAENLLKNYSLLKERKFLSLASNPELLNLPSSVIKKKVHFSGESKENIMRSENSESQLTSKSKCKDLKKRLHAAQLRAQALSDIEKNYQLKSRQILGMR

MCF-7 = assay: cells; conditions: Homo sapiens, MCF7, read-out: IC50 proliferation
Description: (§2) The IC50 values were calculated using the GraphPad Prism software, each assay was replicated 3 times.

MDA-MB-453 = assay: cells; conditions: Homo sapiens, MDA-MB-453, read-out: IC50 proliferation
Description: as §2

TNBC cell lines = assay: cells; conditions: Homo sapiens, read-out: IC50 proliferation, range over TNBC cell lines
Description: as §2

MCF-10A = assay: cells; conditions: Homo sapiens, read-out: IC50 proliferation
Description: as §2

ZR-75-30 = assay: cells; conditions: Homo sapiens, ZR-75-30, read-out: IC50 proliferation
Description: as §2

ZR-75-1 = assay: cells; conditions: Homo sapiens, ZR-75-1, read-out: IC50 proliferation
Description: as §2

MDA-MB-436 = assay: cells; conditions: Homo sapiens, MDA-MB-436, read-out: IC50 proliferation
Description: as §2

HCC1954 = assay: cells; conditions: Homo sapiens, HCC1954, read-out: IC50 proliferation
Description: as §2

BT474 = assay: cells; conditions: Homo sapiens, BT-474, read-out: IC50 proliferation
Description: as §2

BT549 = assay: cells; conditions: Homo sapiens, BT-549, read-out: IC50 proliferation
Description: as §2

MDA-MB-231 [11] = assay: cells; conditions: Homo sapiens, MDA-MB-231, read-out: IC50 proliferation
Description: as §2

MDA-MB-435 = assay: cells; conditions: Homo sapiens, MDA-MB-435, read-out: IC50 proliferation
Description: as §2

SKBR-3 = assay: cells; conditions: Homo sapiens, SK-BR-3, read-out: IC50 proliferation
Description: as §2

MDA-MB-468 [12] = assay: cells; conditions: Homo sapiens, MDA-MB-468, read-out: IC50 proliferation
Description: as §2

sub-acute toxicity test = assay type: in vivo, BALB/c mice; conditions: single oral dose 1 g/kg, observed 15 days
Source text: Then blood of the mice was obtained for serum biochemistry and hematological analysis using a Hitachi 7200 Blood Chemistry Analyzer and a Nihon Kohdern MEK-5216K Automatic Hematology Analyzer. The heart, liver, spleen, lung and kidney were fixed and routinely processed and embedded in paraﬃn for hematoxylin and eosin (H&E) staining analysis.

ERBB2/HER2 = ERBB2/HER2 (Homo sapiens, UniProt P04626); assay: kinase activity in vitro; assay type: biochemical
PLK1 [13] = target: T2, PLK1; assay: kinase activity in vitro; assay type: biochemical
breast xenograft models = assay: breast tumor xenograft models (overall, tolerability); assay type: in vivo, BALB/c nude mice
Aurora A = Aurora A (Homo sapiens, UniProt O14965); assay: kinase activity in vitro; assay type: biochemical
Chain of Aurora A (O14965 whole entry): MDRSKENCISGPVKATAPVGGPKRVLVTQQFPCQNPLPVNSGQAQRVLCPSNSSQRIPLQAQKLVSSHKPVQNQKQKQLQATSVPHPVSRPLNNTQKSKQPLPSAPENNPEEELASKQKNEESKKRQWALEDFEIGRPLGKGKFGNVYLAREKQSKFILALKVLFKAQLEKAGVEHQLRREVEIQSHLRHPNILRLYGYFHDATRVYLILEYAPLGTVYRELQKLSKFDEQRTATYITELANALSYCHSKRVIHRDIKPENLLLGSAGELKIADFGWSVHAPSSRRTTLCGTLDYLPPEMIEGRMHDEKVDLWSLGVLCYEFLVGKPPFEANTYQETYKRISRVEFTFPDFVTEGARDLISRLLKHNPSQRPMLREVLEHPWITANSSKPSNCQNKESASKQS

With `CC(=O)Nc1nccc(-c2ccc3c(/C=C/c4ccc(CN(C)C)cc4)n[nH]c3c2)n1` [YLT-11, (E)-N-(4-(3-(4-((dimethylamino)methyl)styryl)-1H-indazol-6-yl)pyrimidin-2-yl)acetamide] the “Percentage of cells with mitotic catastrophe” value (MDA-MB-231 [1]) was “about 58%”, the “Percentage of cells with mitotic catastrophe” value (MDA-MB-468 [2]) was “approximately 67%” and the IC50 (TTBK1) was 56.7 µM. It also gave an IC50 (PLK2 [3]) of 5.73 µM, a Kd (PLK1 [4]) of over 10 µM and an IC50 (TTBK2) of 8.49 µM. For the same molecule, the IC50 (EGFR) was 0.664 µM, the tumor inhibition rate [5] was 76.7% and the Kd (PLK3 [6]) was over 10 µM. The IC50 (PLK3 [7]) was 4.12 µM, the tumor inhibition rate [8] was 82.5% and the “cleaved caspase-3-positive cells” value (MDA-MB-231 xenografts; vehicle 12.3 ± 5.1) was 66 ± 7.3%. The Ki67-positive cells (MDA-MB-231 xenografts; vehicle 78 ± 8.1%) was 29 ± 6.3%, the IC50 (TOPK) was 1.03 µM and the Kd (PLK2 [9]) was 0.653 µM. For the same molecule, the tumor inhibition rate (MCF-7 tumor xenograft) was 68%, the IC50 (JNK2) was 2.7 µM and the “effect on centriole duplication” value ([10]; 0.5 μM) was “centriole duplications were conspicuously suppressed”. The “effect on centriole numbers” value ([10]; low concentrations (≤0.25 μM)) was “increased the centriole numbers”, the IC50 (FGFR1) was 0.751 µM and the IC50 (NEK2) was 0.332 µM. For the same molecule, the IC50 (MCF-7) was 0.074 µM, the IC50 (MDA-MB-453) was 0.21 µM and the IC50 (TNBC cell lines) was 0.068 to 0.12 µM. For the same molecule, the IC50 (MCF-10A) was over 10 µM, the IC50 (ZR-75-30) was 0.184 µM and the IC50 (ZR-75-1) was 0.223 µM. The IC50 (MDA-MB-436) was 0.08 µM, the IC50 (HCC1954) was 0.17 µM and the IC50 (BT474) was 0.163 µM. The IC50 (BT549) was 0.073 µM, the IC50 (MDA-MB-231 [11]) was 0.12 µM and the IC50 (MDA-MB-435) was 0.154 µM. The IC50 (SKBR-3) was 0.231 µM, the IC50 (MDA-MB-468 [12]) was 0.068 µM and the “body weight and hematoxylin and eosin staining vs vehicle” value (sub-acute toxicity test) was “no obvious difference”. The “serological and hematological analyses vs vehicle” value (sub-acute toxicity test) was “no significant difference”, the IC50 (ERBB2/HER2) was 0.539 µM and the IC50 (PLK1 [13]) was 4.78 µM. The “inhibitory rate on tumor growth” value (breast xenograft models; breast xenograft models, 90 mg/kg (p.o)) was “more than 60%”, the “body weight of experimental animals” value (breast xenograft models; xenograft mice, 30 and 90 mg/kg p.o. every day) was “no significant loss in body weight” and the IC50 (Aurora A) was 0.468 µM.
